In ChEMBL document CHEMBL5365468, “Discovery of a novel series of medium-sized cyclic enteropeptidase inhibitors” (Bioorg Med Chem, 2023):

What was measured:
[1] = molecular target: T1, Enteropeptidase (Homo sapiens, UniProt P98073); assay: Inhibition of human recombinant enteropeptidase using 5FAM-Abu-Gly-Asp-Asp-Asp-Lys-Ile-Val-Gly-Gly-Lys(CPQ2)-Lys-Lys-NH2 as substrate incubated for 6 mins by fluorescence plate reader analysis
[2] = molecular target: T1, Enteropeptidase; assay: Inhibition of human recombinant enteropeptidase using 5FAM-Abu-Gly-Asp-Asp-Asp-Lys-Ile-Val-Gly-Gly-Lys(CPQ2)-Lys-Lys-NH2 as substrate incubated for 120 mins by fluorescence plate reader analysis
[3] = molecular target: T1, Enteropeptidase; assay: Inhibition of human recombinant enteropeptidase using 5FAM-Abu-Gly-Asp-Asp-Asp-Lys-Ile-Val-Gly-Gly-Lys(CPQ2)-Lys-Lys-NH2 as substrate assessed as dissociation half life preincubated with compound for 2 hrs followed by substrate addition and measured every 2 mins by fluorescence based analysis
[4] = In vivo inhibition of enteropeptidase in D12079B diet-induced obese C57BL/6J mouse model assessed as fold increase in fecal protein output at 10 mg/kg, po measured overnight relative to N-({4-[(4-carbamimidamidobenzoyl)oxy]phenyl}acetyl)-L-aspartic acid hydrochloride; format: functional
[5] = Stability of the compound at pH 1.2 assessed as drug decomposition at 10 ug/ml incubated for 24 hrs by HPLC analysis; format: physicochemical; settings: buffer, at 10 µg/mL, read-out: Drug degradation
[6] = Stability of the compound at pH 6.8 assessed as drug decomposition at 10 ug/ml incubated for 24 hrs by HPLC analysis; format: physicochemical; settings: buffer, at 10 µg/mL, read-out: Drug degradation
[7] = Inhibition of rat recombinant enteropeptidase catalytic domain (818 to 1057 residues) using 5FAM-Abu-Gly-Asp-Asp-Asp-Lys-Ile-Val-Gly-Gly-Lys(CPQ2)-Lys-Lys-NH2 as substrate incubated for 120 mins by fluorescence plate reader analysis
[8] = Oral bioavailability in dog assessed as ratio of dose normalized oral AUC to intravenous AUC at 1 mg/kg by LC-MS/MS analysis; format: ADME, organism-based, Canis lupus familiaris; settings: in vivo
[9] = Oral bioavailability in mouse assessed as ratio of dose normalized oral AUC to intravenous AUC at 10 mg/kg by LC-MS/MS analysis; format: ADME, organism-based; settings: in vivo
[10] = Oral bioavailability in rat assessed as ratio of dose normalized oral AUC to intravenous AUC at 10 mg/kg by LC-MS/MS analysis; format: ADME, organism-based; settings: in vivo
[11] = Oral bioavailability in monkey assessed as ratio of dose normalized oral AUC to intravenous AUC at 1 mg/kg by LC-MS/MS analysis; format: ADME, organism-based, Macaca mulatta; settings: rhesus monkey, in vivo
[12] = Drug absorption in mouse intestine assessed as fraction of drug absorbed into portal vein at 10 mg/kg, po by LC-MS/MS analysis; format: ADME, organism-based; settings: in vivo
[13] = Drug absorption in rat intestine assessed as fraction of drug absorbed into portal vein at 10 mg/kg, po by LC-MS/MS analysis; format: ADME, organism-based; settings: in vivo
[14] = Drug absorption in dog intestine assessed as fraction of drug absorbed into portal vein at 1 mg/kg, po by LC-MS/MS analysis; format: ADME, organism-based, Canis lupus familiaris; settings: in vivo
[15] = Drug absorption in monkey intestine assessed as fraction of drug absorbed into portal vein at 1 mg/kg, po by LC-MS/MS analysis; format: ADME, organism-based, Macaca mulatta; settings: rhesus monkey, in vivo
[16] = Drug metabolism in Sprague-Dawley rat assessed as open-ring type hydrolyzed metabolite formation in plasma at 100 mg/kg, po by LC-MS/MS analysis; format: ADME, organism-based; settings: in vivo

T1 sequence (P98073 2-784 limits assumed): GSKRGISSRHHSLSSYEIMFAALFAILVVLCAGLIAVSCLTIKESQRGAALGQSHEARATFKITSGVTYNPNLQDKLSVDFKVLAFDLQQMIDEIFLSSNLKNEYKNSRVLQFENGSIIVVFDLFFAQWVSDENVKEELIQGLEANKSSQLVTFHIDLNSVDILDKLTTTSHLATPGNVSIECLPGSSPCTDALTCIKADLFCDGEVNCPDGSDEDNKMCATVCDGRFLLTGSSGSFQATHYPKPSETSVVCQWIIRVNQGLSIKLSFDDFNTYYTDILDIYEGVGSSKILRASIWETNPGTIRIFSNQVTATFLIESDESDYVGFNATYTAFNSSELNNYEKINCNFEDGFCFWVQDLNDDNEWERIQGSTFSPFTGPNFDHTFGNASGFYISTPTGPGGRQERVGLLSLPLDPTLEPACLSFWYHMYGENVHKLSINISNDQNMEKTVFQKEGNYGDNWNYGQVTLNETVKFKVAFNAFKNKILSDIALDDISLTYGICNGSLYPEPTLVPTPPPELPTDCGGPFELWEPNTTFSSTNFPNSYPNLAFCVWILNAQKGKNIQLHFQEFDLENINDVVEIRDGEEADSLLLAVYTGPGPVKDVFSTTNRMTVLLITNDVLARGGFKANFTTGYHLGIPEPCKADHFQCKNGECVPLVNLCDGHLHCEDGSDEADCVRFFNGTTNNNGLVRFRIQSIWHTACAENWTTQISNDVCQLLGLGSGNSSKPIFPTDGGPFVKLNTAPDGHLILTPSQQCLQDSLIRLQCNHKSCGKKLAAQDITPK
T1 sequence (P98073 785-1019 limits assumed): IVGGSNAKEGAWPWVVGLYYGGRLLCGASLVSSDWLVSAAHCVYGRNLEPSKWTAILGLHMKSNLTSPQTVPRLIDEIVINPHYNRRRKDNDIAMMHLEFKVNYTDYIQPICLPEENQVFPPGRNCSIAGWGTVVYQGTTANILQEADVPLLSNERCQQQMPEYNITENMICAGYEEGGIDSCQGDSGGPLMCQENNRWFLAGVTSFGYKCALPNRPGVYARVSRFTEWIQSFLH

Compound	IC50 [1] [nM]	IC50 [2] [nM]	T1/2 [3] [h]	fold change (FC) [4]	also measured
N=C(N)Nc1ccc2c(c1)CCCCOc1c(cccc1C(=O)N[C@@H](CC(=O)O)C(=O)O)OC2=O	26	1.7	> 2		
N=C(N)Nc1ccc2c(c1)CCCCCc1c(cccc1C(=O)N[C@@H](CC(=O)O)C(=O)O)OC2=O	96	2.9	> 2	1.15	degraded at 24 h, 10 ug/ml [5]: 0.4%; degraded at 24 h, 10 ug/ml [6]: 0.6%
N=C(N)Nc1ccc2c(c1)OCCCc1c(cccc1C(=O)N[C@@H](CC(=O)O)C(=O)O)OC2=O	8.7	0.69	0.27		
Cc1ccc(C(=O)N[C@@H](CC(=O)O)C(=O)O)cc1OC(=O)c1ccc(NC(=N)N)cc1	> 3300	710			
N=C(N)Nc1ccc2c(c1)CCCOc1c(cccc1C(=O)N[C@@H](CC(=O)O)C(=O)O)OC2=O	9.4	0.41	> 2	1.72	IC50 [7]: 0.62 nM; bioavailability [8]: 2.8%; bioavailability [9]: 1.1%; bioavailability [10]: 1%; bioavailability [11]: 0.3%; FaFg [12]: 1.9%; FaFg [13]: 1.2%; FaFg [14]: 3.4%; FaFg [15]: 0.3%; Drug metabolism [16]: Metabolite_Detected
N=C(N)Nc1ccc2c(c1)CCCc1c(cccc1C(=O)N[C@@H](CC(=O)O)C(=O)O)OC2=O	430	22			

More lines, in order of falling IC50 [1], values ahead:

IC50 [1] [nM]	IC50 [2] [nM]	T1/2 [3] [h]	Compound	fold change (FC) [4]	also measured
2500	81		N=C(N)Nc1ccc2c(c1)CCCCCCc1c(cccc1C(=O)N[C@@H](CC(=O)O)C(=O)O)OC2=O		
93	3.2	> 2	N=C(N)Nc1ccc2c(c1)CCCCc1c(cccc1C(=O)N[C@@H](CC(=O)O)C(=O)O)OC2=O	1.13	degraded at 24 h, 10 ug/ml [5]: 1.2%; degraded at 24 h, 10 ug/ml [6]: 3.4%
69	4.4		Cc1c(OC(=O)c2ccc(NC(=N)N)cc2)cccc1C(=O)N[C@@H](CC(=O)O)C(=O)O		
